These results are taken from patent US11957665B1, “Pharmaceutical composition for preventing or treating alopecia areata acting as a functional antagonist for S1PR1 and S1PR4” (NEXTGEN BIOSCIENCE CO., LTD., priority 2022, dated 2024).

Structures are written as SMILES.

The test system of data set [1] is alopecia areata mouse model C3H/HeJ. Kind of data set: Efficacy in suppressing alopecia areata in C3H/HeJ alopecia areata mouse model. It is filed as in vivo, C3H/HeJ mice. On the procedure: The effectiveness of NXC736 for alopecia areata was evaluated using the alopecia areata mouse model C3H/HeJ (Jackson Lab, Saeron Bio). […] Conditions for the animal breeding room include a temperature of 23±3° C., relative humidity of 50±10%, and day and night maintained at 12-hour intervals, and experimental animals were raised in isolation breeding boxes (ThreeShine), and fed with food and drinking water for experimental animals ad libitum.
Mice were divided into two groups: the control group (sterilized distilled water administration group) and the NXC736 administration experimental group, five C3H/HeJ mice were randomly assigned per group, and from the time point lymph node cells were proliferated and injected into C3H/HeJ mice aged 10 to 16 weeks where no alopecia was induced, NXC736 was orally administered at 30 mg/kg for the NXC736 administration group and the same volume of sterilized distilled water was orally administered for the control group for 12 weeks once a day at the same time, respectively, and then the area of alopecia areata (AA) lesion area and disease free ratio were measured at intervals of 2 weeks.
The alopecia areata lesion area was measured using the Image J program (Version 1.44p) after taking a photograph.
The disease free ratio was defined as the proportion of mice administered the drug and not showing alopecia symptoms at a specified time point.

For data set [2], the target named is T1, hERG potassium ion channel (Homo sapiens, UniProt Q12809). Kind of data set: cell-based.
The target in data set [3] is T1, hERG potassium ion channel. Kind of data set: Effect on hERG channel currents in HEK-293 cells overexpressing the hERG gene.
Data set [4] concerns T cells, CD4 T cells, CD8 T cells. Kind of data set: Inhibitory effect of NXC736 on rat immune cells (flow cytometry of lymphocytes in peripheral blood and bone marrow). It is filed as in vivo, SD rats. The conditions noted are these: 10 mg/kg oral once, PB. On the procedure:
To evaluate the effect of NXC736 on rat immune cells, NXC736 was administered orally once at 10 mg/kg/day to SD rats (Daehan BioLink (DBL), 3 control groups, and 15 test groups), and then measurements were performed by classifying into T cells, CD4 T cells, and CD8 T cells in peripheral bloodstream (PB) and bone marrow (BM) using the same antibodies as in Experimental Example 1. Specifically, measurements were made using a flow cytometer (FC500, Beckman coulter) at 0, 4, 8, 12, 24, 36, and 48 hours after administration of the test substance, the analysis was performed using FlowJo™ V10 (Flowjo, LLC), and the numbers of T cells, CD4 T cells, and CD8 T cells were expressed as % of control based on time 0.

The test system is the same in data set [5]. Kind of data set: Inhibitory effect of NXC736 on mouse immune cells (flow cytometry of lymphocytes in peripheral blood and bone marrow). The format is in vivo, C57BL/6 mice. The conditions noted are these: 3 mg/kg oral once. On the procedure: To determine whether NXC736, which acts on the S1P receptor, also has an effect on lymphocyte reduction, the effect of NXC736 on immune cells was evaluated. After oral administration of NXC736 once at 3 mg/kg/day to C57BL/6 mice (Daehan BioLink (DBL), 4 mice in the control group and 18 mice in the test group), the change in lymphocytes in peripheral blood (PB), bone marrow (BM) was measured by classifying into T cells (using anti-mouse CD3ε-PE/cyanine7 antibody), CD4 T cells (using anti-mouse CD4-FITC antibody), and CD8 T cells (using anti-mouse CD8a-PerCP antibody). Specifically, measurements were made using a flow cytometer (FC500, Beckman coulter) at 0, 4, 8, 12, 24, and 36 hours after administration of the test substance, the analysis was performed using FlowJo™ V10 (Flowjo, LLC), and the numbers of T cells, CD4 T cells, and CD8 T cells were expressed as % of control based on time 0.

Another data set has as its system beagle dogs. Kind of data set: Effect on the cardiovascular system (heart rate, general symptoms) in beagle dogs. It is filed as in vivo. On the procedure:
NXC736 was orally administered to four unanesthetized and unrestrained male beagle dogs (ORIENTBIO Inc., Republic of Korea) implanted with remote transmitters. Afterwards, the heart rate of four beagle dogs was measured to evaluate the effect of NXC736 on the cardiovascular system, and the occurrence of abnormal symptoms was visually checked.
In this experiment, 4 beagle dogs were administered with 0.5% MC aqueous solution, which is an excipient, as a control substance, and the heart rate was measured, and after 1 week, NXC736 was administered at 12.5 mg/kg and the heart rate was measured, after 1 week, NXC736 was administered at 25 mg/kg and the heart rate was measured, and after 1 week, NXC736 was administered at 50 mg/kg and the heart rate was measured.
The heart rate of beagle dogs was specifically measured at 0 hours before administration of the test substance, and 0.5 hours, 1 hour, 2 hours, 3 hours, 4 hours, 6 hours, 8 hours, 12 hours, and 24 hours after administration of the test substance.

T1 sequence (Q12809 whole entry): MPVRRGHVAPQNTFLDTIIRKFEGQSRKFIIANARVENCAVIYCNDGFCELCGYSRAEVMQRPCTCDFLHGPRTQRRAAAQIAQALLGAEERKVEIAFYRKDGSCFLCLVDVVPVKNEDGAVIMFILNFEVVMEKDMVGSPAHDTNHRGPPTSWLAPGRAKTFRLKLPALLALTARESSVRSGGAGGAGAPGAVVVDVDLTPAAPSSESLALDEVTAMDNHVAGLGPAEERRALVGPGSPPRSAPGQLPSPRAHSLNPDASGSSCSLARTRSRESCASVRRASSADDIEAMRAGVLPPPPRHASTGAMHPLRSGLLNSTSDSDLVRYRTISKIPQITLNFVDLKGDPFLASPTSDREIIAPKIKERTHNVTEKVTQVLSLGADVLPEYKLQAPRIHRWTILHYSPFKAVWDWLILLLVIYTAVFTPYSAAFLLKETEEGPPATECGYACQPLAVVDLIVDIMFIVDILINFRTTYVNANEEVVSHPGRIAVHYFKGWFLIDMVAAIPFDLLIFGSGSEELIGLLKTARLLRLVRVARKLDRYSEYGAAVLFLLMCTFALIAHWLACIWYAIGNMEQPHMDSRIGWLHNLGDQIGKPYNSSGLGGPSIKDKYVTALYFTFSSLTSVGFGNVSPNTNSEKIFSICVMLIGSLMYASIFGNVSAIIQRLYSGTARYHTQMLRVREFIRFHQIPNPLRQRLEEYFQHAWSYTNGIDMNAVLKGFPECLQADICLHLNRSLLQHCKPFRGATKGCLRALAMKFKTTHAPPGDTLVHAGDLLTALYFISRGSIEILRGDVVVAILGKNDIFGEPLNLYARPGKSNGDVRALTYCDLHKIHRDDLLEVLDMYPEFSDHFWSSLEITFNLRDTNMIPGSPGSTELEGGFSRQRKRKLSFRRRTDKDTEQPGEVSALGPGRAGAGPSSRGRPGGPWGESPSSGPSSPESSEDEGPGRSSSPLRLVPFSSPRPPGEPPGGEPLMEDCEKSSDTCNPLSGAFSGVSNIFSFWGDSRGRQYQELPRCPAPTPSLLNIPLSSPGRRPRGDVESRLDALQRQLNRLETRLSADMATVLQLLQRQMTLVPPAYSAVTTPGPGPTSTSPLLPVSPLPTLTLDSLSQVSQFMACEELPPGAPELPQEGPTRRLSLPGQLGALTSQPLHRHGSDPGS

Take `CCCCCCCCCCn1cc(CCC(N)(CO)CO)nn1` [NXC736, 2-amino-2-(2-(1-decyl-1H-1,2,3-triazol-4-yl)ethyl)propane-1,3-diol]: the “time to observe 100% alopecia areata (disease free ratio)” value in data set [1] (30 mg/kg oral once a day) is recorded as “up to 84 days”. The “alopecia areata (AA) lesion area” value in data set [1] (30 mg/kg oral once a day for 12 weeks) is “approximately 10%”. For the same compound, 12.9 µM corresponded to half-maximal inhibition in data set [2] (IC50). In addition, the “hERG potassium channel activity, conclusion” value in data set [3] is reported as “does not inhibit hERG potassium channel activity”. In data set [4], the “time for which the immunosuppressive effect was maintained” value was “up to 24 hours”. For the same compound, the “time until which the decrease of T cells in PB was maintained” value in data set [5] was at most 12 h. The “T cells in PB after recovery (% of control)” value in data set [5] (at 36 hours) is given as 88.9%. In addition, in the data set on beagle dogs (oral doses of 12.5, 25 and 50 mg/kg, 0-24 hours), the heart rate result was “no change in heart rate”. In addition, the “general symptoms, naked eye” value with beagle dogs (oral doses of 12.5, 25 or 50 mg/kg) is on record as “no abnormal symptoms were observed”.
